A word on the inhibition: it is the percentage by which the read-out fell short of the control.

Molecules are shown by their SMILES. pIC50: −log10 of the molar value. Read-outs that look alike come from different tables or passages of the source. Where only a bound is given, the exact number is not on record here.

The values below come from patent US5786364A, “Bicyclic isothiourea derivatives useful in therapy” (priority 1995, dated 1998).

Holding throughout (assay type): biochemical
The target in experiment [1] is T1, inducible nitric oxide synthase (Homo sapiens, UniProt P35228).
T1 construct: Enzyme is prepared, after induction, from the cultured human colorectal carcinoma cell line, DLD-1; endogenous in cells; host or cells: DLD-1 cells (European Collection of Animal Cell Cultures), induced with IL-1, IFN-gamma, IL-6 and TNF-alpha; cell lysate
The experiment can be described thus: Screen B: screen for inducible nitric oxide synthase inhibiting activity (DLD-1 cell lysate).
Experimental: (§1) Nitric oxide synthase converts ^3 H-L-arginine to ^3 H-L-citrulline which can be separated by cation exchange chromatography and quantified by scintillation counting.
(B) Screen for inducible nitric oxide synthase inhibiting activity
Enzyme is prepared, after induction, from the cultured human colorectal carcinoma cell line, DLD-1 (obtained from the European Collection of Animal Cell Cultures) DLD-1 cells are cultured in RPMI 1640 media supplemented with 10% foetal bovine serum, 4 mM L-glutamine and antibiotics (100 units/ml penicillin G, 100 μg/ml streptomycin & 0.25 μg/ml amphotericin B) and 100 ug/ml kanamycin. Cells are routinely grown in 225 cm^3 flasks containing 35 ml medium kept at 37° C. and in a humidified atmosphere containing 5% CO2.
Nitric oxide synthase is produced by cells in response to interferon-about 250 U/ml IL-1, 1000 U/ml IFNγ, 200 U/ml IL-6, and 200 U/ml TNF-alpha. After a period of 17-20 hours in culture, harvesting of cells is accomplished by scraping the cell sheet from the flask surface into the culture medium. […]
Labelled L-citrulline is separated from labelled L-arginine using Dowex AG-50W. […] After allowing the samples to dry the L-citrulline is quantified by scintillation counting. […]

The target in experiment [2] is T2, neuronal nitric oxide synthase (Rattus norvegicus, UniProt P29476).
T2 construct: Enzyme was isolated from rat hippocampus or cerebellum; from tissue; host or cells: hippocampus or cerebellum of male Sprague-Dawley rat, 20,000 g supernatant
T2 sequence (P29476 whole entry): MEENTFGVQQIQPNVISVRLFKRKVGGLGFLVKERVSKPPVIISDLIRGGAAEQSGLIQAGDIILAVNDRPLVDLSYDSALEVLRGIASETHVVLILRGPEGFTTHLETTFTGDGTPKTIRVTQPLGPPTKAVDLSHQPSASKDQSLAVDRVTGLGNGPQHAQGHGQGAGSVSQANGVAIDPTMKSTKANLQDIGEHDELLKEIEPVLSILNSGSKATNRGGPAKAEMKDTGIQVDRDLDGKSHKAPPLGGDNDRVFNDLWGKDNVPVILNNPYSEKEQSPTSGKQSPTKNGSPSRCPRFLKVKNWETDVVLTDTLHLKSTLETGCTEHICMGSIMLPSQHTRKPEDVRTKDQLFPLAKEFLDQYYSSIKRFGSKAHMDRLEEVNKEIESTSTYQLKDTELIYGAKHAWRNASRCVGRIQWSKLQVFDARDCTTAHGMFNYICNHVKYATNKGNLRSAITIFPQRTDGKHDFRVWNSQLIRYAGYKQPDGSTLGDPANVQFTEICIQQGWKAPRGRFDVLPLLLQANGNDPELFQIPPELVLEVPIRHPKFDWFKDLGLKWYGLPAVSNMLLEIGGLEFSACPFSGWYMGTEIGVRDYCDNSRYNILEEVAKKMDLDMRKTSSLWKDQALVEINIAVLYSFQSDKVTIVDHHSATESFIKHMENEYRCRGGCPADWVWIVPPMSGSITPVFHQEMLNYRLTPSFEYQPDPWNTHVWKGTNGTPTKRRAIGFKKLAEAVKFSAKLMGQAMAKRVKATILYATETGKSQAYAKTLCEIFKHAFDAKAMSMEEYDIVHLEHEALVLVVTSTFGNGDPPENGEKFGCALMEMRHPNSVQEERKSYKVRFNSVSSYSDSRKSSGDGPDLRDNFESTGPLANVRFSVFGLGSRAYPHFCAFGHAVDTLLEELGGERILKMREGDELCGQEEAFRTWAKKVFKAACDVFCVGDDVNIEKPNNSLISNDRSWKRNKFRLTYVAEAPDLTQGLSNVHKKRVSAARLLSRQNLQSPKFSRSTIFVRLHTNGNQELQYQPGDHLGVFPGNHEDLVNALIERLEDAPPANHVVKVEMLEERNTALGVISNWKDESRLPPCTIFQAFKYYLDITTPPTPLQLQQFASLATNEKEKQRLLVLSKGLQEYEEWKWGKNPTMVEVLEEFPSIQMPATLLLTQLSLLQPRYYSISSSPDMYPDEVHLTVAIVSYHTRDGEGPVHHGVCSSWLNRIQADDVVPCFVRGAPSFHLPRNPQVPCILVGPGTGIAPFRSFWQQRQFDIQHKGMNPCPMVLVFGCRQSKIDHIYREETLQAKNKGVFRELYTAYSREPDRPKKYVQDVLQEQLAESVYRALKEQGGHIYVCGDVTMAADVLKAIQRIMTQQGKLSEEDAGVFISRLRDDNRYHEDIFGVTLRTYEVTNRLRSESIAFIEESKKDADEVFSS
The experiment can be described thus: Screen A: screen for neuronal nitric oxide synthase inhibiting activity (conversion of 3H-L-arginine to 3H-L-citrulline).
Experimental: as §1
(A) Screen for neuronal nitric oxide synthase inhibiting activity
Enzyme was isolated from rat hippocampus or cerebellum. The cerebellum or hippocampus of a male Sprague-Dawley rat (250-275 g) is removed following CO2 anaesthesia of the animal and decapitation. Cerebellar or hippocampal supernatant is prepared by homogenisation in 50 mM Tris-HCl with 1 mM EDTA buffer (pH 7.2 at 25° C.) and centifugation for 15 minutes at 20,000 g. Residual L-arginine is removed from the supernatant by chromatography through Dowex AG-50W-X8 sodium form and hydrogen form columns successively, and further centrifugation at 1000 g for 30 seconds.
For the assay, 25 μl of the final supernatant is added to each of 96 wells (of a 96 well filter plate) containing 25 μl L-arginine solution (of concentration 18 μM ^1 H-L-arginine, 96 nM ^3 H-L-arginine)and either 25 μl of an assay buffer (50 mM HEPES, 1 mM EDTA, 1.5 mM CaCl2, pH 7.4) or 25 μl of test compound in the buffer at 22° C. To each test tube is added 25 μl of complete assay buffer (50 mM HEPES, 1 mM EDTA, 1.5 mM CaCl2, 1 mM DTT, 100 μM NADPH, 10 μg/ml calmodulin, pH 7.4) to initiate the reaction and the reaction is stopped after 10 minutes by addition of 200 μl of a slurry of termination buffer (20 mM HEPES, 2 mM EDTA, pH 5.5) and Dowex AG-50W-X8 200-400 mesh.
Labelled L-citrulline is separated from labelled L-arginine by filtering each filter plate and 75 ul of each terminated reaction is added to 3 ml of scintillation cocktail. The L-citrulline is then quantified by scintillation counting.
IC50 values for test compounds were initially estimated from the inhibiting activity of 1, 10 and 100 μM solutions of the compounds.

In experiment [3] the target is T3, endothelial nitric oxide synthase (Homo sapiens, UniProt P29474).
T3 construct: Enzyme may be isolated from human umbilical vein endothelial cells (HUVECs); host or cells: human umbilical vein endothelial cells (HUVECs)
T3 sequence (P29474 2-1203): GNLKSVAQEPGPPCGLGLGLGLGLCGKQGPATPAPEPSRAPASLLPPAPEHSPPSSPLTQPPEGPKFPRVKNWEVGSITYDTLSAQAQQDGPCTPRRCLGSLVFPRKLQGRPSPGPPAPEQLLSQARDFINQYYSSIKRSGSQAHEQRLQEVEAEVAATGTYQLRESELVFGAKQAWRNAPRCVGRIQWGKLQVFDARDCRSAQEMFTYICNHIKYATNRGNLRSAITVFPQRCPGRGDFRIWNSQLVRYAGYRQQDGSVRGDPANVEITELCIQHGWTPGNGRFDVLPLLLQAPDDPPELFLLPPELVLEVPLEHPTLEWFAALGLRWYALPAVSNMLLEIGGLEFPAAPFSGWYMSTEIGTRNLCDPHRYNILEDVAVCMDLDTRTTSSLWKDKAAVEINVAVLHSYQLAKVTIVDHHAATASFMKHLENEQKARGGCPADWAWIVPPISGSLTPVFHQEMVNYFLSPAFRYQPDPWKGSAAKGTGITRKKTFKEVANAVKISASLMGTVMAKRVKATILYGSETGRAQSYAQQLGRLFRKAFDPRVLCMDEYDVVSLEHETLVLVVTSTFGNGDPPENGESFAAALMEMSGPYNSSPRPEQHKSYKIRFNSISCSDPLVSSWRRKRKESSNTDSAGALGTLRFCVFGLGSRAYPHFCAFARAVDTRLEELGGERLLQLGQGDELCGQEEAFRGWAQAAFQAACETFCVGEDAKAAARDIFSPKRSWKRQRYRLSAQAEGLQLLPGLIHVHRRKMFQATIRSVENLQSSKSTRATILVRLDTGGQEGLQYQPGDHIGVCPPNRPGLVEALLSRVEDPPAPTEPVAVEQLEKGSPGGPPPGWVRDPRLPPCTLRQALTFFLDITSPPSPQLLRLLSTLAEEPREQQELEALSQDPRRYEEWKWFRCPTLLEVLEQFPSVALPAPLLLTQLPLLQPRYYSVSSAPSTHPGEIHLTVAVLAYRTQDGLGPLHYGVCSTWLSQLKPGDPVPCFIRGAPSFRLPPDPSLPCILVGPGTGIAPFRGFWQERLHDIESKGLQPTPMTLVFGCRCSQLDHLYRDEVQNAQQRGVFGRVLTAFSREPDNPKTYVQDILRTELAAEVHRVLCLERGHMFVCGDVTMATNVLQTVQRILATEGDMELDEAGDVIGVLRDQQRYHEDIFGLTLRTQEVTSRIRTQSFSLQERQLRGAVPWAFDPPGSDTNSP
The experiment can be described thus: Screen C: screen for endothelial nitric oxide synthase inhibiting activity (HUVEC enzyme).
Text: as §1
(C) Screen for endothelial nitric oxide synthase inhibiting activity
HUVECs were purchased from Clonetics Corp (San Diego, Calif., U.S.A.) and cultured to confluency. Cells can be maintained to passage 35-40 without significant loss of yield of nitric oxide synthase. When cells reach confluency, they are resuspended in Dulbecco's phosphate buffered saline, centrifuged at 800 rpm for 10 mins, the cell pellet homogenised in ice-cold 50 mM Tris-HCl, 1 mM EDTA, 10% glycerol, 1 mM phenylmethylsulphonylfluoride, 2 μM leupeptin at pH 4.2. Following centrifugation at 34,000 rpm for 60 mins, the pellet is solubilised in the homogenisation buffer which also contains 20 mM CHAPS. After a 30 min incubation on ice, the suspension is centrifuged at 34,000 rpm for 30 mins. The resulting supernatant is stored at -80° C. until use. […]
Labelled L-citrulline is separated from labelled L-arginine by filtration into another 96 well plate and 75 ul of each terminated reaction is added to 3 ml of scintillation cocktail. The L-citrulline is then quantified by scintillation counting. […]

For `N=C(N)NN` [Aminoguanidine, reference compound], the pIC50 in experiment [1] (inducible isoform, DLD-1 cell lysate, standard to verify the procedure, read-out: IC50 (50% inhibitory concentration) (Screen B standard)) was 5.00.
In the case of `CCSC(=N)Nc1ccc2c(c1)CNCC2` [Example 1, N-(1,2,3,4-tetrahydroisoquinolin-7-yl)carbamimidothioic acid ethyl ester], the pIC50 in experiment [2] is over 5.00. Further, the “IC50 in Screen B relative to that obtained in Screen A (selectivity)” value in experiment [1] (Screen B (macrophage isoform) IC50 / Screen A (neuronal) IC50) is reported as “more than 10 times”. The “IC50 in Screen C relative to that obtained in Screen A (selectivity)” value in experiment [3] (Screen C (endothelial isoform) IC50 / Screen A (neuronal) IC50) is recorded as “more than 10 times”.
As for `CCSC(=N)Nc1ccc2c(c1)CC(N(C)Cc1cccc(Cl)c1)C2` (stereo not shown) [Example 2, N-5-(2-(((3-chlorophenyl)methyl)(methyl)amino)indanyl)carbamimidothioic acid, ethyl ester], the pIC50 in experiment [2] (neuronal isoform, rat hippocampus or cerebellum supernatant, read-out: IC50 (Screen A)) was over 5.00.
As to `NC(=NCCC[C@H](N)C(=O)O)N[N+](=O)[O-]` [N-nitro-L-arginine, reference compound], the inhibition at 1 µM is 80% in experiment [2] (at a concentration of 1 μM, cerebellar supernatant, typical experiment, read-out: inhibition of nitric oxide synthase (Screen A reference standard)) and 70 to 90% in experiment [3] (at a concentration of 1 μM, typical experiment, read-out: inhibition of nitric oxide synthase (Screen C reference standard)).
